{"source": "patent US9617212B2", "about": "“Isoindolin-1-ones as macrophage migration inhibitory factor (MIF) inhibitors” (Controlled Chemicals, Inc., priority 2013, dated 2017)"}
{"target": "T1, Human MIF (MIF tautomerase) (Homo sapiens, UniProt P14174)", "T1 construct": "purchased ProSpec", "T1 sequence (P14174 2-115 limits assumed)": "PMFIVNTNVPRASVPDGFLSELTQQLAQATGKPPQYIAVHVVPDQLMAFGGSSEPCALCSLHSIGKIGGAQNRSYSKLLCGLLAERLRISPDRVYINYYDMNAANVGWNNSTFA", "assay": "MIF Tautomerase Inhibitory Assay with L-Dopachrome Methyl Ester", "type": "biochemical", "settings": "IC50, relative potency class, MIF tautomerase inhibition; L-dopachrome methyl ester substrate, pH 7.34, no pre-incubation", "procedure": "(§1) MIF Tautomerase Inhibitory Assay with L-Dopachrome Methyl Ester\n(§2) Assay Method (pH 7.34, 0.017-0.033% DMSO, 0.034% EtOH): A fresh stock solution of L-dopachrome methyl ester in MeOH was prepared at 55-65 mM through oxidation of L-3,4-dihydroxyphenylalanine methyl ester hydrochloride with sodium periodate according to the procedure described in WO9729635A1. MeOH was removed from 0.5 mL of the L-dopachrome methyl ester/MeOH solution (55-65 mM) under a stream of argon and the residue taken up in appropriate amount of water to prepare a substrate solution (7-10 mM). Active Human MIF (from ProSpec) ([…]) was dissolved in 675 μL 0.1% bovine serum albumin (BSA) in water, and the resultant MIF solution (1 volume) mixed with 55 volumes of Na2HPO4 buffer (50 mM, pH 7.34) to form a 265 ng/mL MIF working solution. MIF working solution (280 μL) or a no-MIF working solution (prepared by mixing 0.1% BSA (1 volume) with the aforementioned Na2HPO4 buffer (55 volumes)) was transferred to wells in a column of 8 wells on a 96-well plate in a Plate Reader (SPECTRAmax Plus 384, Molecular Devices), and 5 μL of H2O/DMSO (99/1) containing no inhibitor or an inhibitor (whose concentration was verified by HPLC). Without pre-mixing or pre-incubation, 10 μL freshly prepared L-dopachrome methyl ester/H2O solution (7-10 mM) was added to each well with a multi-pipet. The assay samples were mixed immediately by sucking up and expelling the contents of the wells three times with a multi-pipet. The absorbance (A1) at 475 nm was then recorded for each sample every 2 s for 3 min. After 5-6 min, the samples were monitored again for 3 min with a reading every two seconds at 475 nm (A2). It can be shown that when [substrate]<<Km, plots of Ln(A1−A2) versus time are linear with slopes m (Eq 1). IC50 values were estimated from Eq 2-5, the inhibitor concentration [I] in the assay mixture and values of m in the presence (mi), absence (mo) of the inhibitor, the value of m observed for the non-MIF blank (mn), the MIF concentration (e), and the specificity constant for the MIF catalyzed reaction (kcat/Km). Ln(A1−A2)=−mt (Eq 1) F=(mi−mn)/(mo−mn) (Eq 2) Wherein mo−mn=ekcat/Km (Eq 3) and mi−mn=(ekcat/Km)[…] (Eq 4) IC50=[I]F/(1−F) (Eq 5)\n(§3) The compounds listed in Table 1, provided herein, were prepared via procedures identical or similar to those described in the Examples 1-85. The listed compounds were >95% pure by HPLC. Each listed compound yielded a mass spectrum consistent with its structure. Concentrations of MIF tautomerase inhibitors used in the assay were verified by HPLC and the extinction coefficients of the inhibitors. The designated relative potency of MIF tautomerase inhibitors is based on the IC50 as determined by the method described in Biochemical Assay as follows: A, IC50<1 μM; B, 1 μM≦IC50<5 μM; C, 5 μM≦IC50<10 μM; D, 10 μM≦IC50<50 μM; E, 50 μM≦IC50<200 μM.", "units": {"IC50": "nM"}}
{"smiles": "CC(OC(=O)Cc1ccccc1)[C@H]1CC[C@H](CN2Cc3cc(F)c(O)cc3C2=O)CC1", "note": "(some centres unmarked)", "IC50": "< 1000"}
{"target": "T1, Human MIF (MIF tautomerase)", "assay": "MIF Tautomerase Inhibitory Assay with L-Dopachrome Methyl Ester", "type": "biochemical", "settings": "relative potency class, MIF tautomerase inhibition; L-dopachrome methyl ester substrate, pH 7.34, no pre-incubation; read-out: IC50", "procedure": "as §1, §2, §3", "units": {"IC50": "nM"}}
{"smiles": "CC(NC(CO)CO)C1CCC(CN2Cc3ccc(O)c(F)c3C2=O)CC1", "note": "(centres unmarked)", "IC50": "< 1000"}
{"smiles": "O=C(OC1CCCCC1)c1ccc(CCN2Cc3ccc(O)cc3C2=O)cc1", "IC50": "1000 to 5000"}
{"smiles": "O=C(OC1CCCCC1)c1ccc(CN2Cc3ccc(O)cc3C2=O)cc1", "IC50": "10000 to 50000"}
{"smiles": "O=C(OC1CCCC1)C1CCC(CCN2Cc3ccc(O)cc3C2=O)CC1", "note": "(centres unmarked) [drawing 138]", "IC50": "1000 to 5000"}
{"smiles": "O=C1c2cc(O)ccc2CN1CC1CCCCC1", "IC50": "1000 to 5000"}
{"smiles": "O=C1c2cc(O)ccc2CN1C[C@H]1CC[C@H](C(=O)N2CCCCC2)CC1", "IC50": "< 1000"}
{"smiles": "COC(=O)[C@@H](C)NC(C)C1CCC(CN2Cc3ccc(O)c(F)c3C2=O)CC1", "note": "(some centres unmarked) [drawing 112]", "IC50": "< 1000"}
{"smiles": "COc1cc(F)cc(OC[C@H]2CC[C@H](CN3Cc4ccc(O)cc4C3=O)CC2)c1", "IC50": "< 1000"}
{"smiles": "CC(C)(N)[C@H]1CC[C@H](CN2Cc3ccc(O)c(F)c3C2=O)CC1", "IC50": "< 1000"}
{"smiles": "O=C1c2cc(O)ccc2CN1C[C@H]1CC[C@H](CO)CC1", "IC50": "1000 to 5000"}
{"smiles": "CC(N[C@H](CO)C(=O)O)C1CCC(CN2Cc3ccc(O)c(F)c3C2=O)CC1", "note": "(some centres unmarked)", "IC50": "< 1000"}
{"smiles": "CC(=O)[C@H]1CC[C@H](CN2Cc3ccc(O)c(F)c3C2=O)CC1", "IC50": "< 1000"}
{"smiles": "O=C1c2cc(O)ccc2CN1C[C@H]1CC[C@H](COc2ccc(F)cc2)CC1", "IC50": "< 1000"}
{"smiles": "CC(O)[C@H]1CC[C@H](CN2Cc3ccc(O)cc3C2=O)CC1", "note": "(some centres unmarked)", "IC50": "< 1000"}
{"smiles": "N[C@@H](COc1cccc(OC[C@H]2CC[C@H](CN3Cc4ccc(O)c(F)c4C3=O)CC2)c1)C(=O)O", "IC50": "< 1000"}
{"smiles": "O=C1c2cc(O)ccc2CN1C[C@H]1CC[C@H](C(=O)OC2CCCC2)CC1", "IC50": "5000 to 10000"}
{"smiles": "CC(=O)NC(C)[C@H]1CC[C@H](CN2Cc3ccc(O)c(F)c3C2=O)CC1", "note": "(some centres unmarked)", "IC50": "< 1000"}
{"smiles": "CC(Oc1cccc(F)c1)[C@H]1CC[C@H](CN2Cc3ccc(O)cc3C2=O)CC1", "note": "(some centres unmarked)", "IC50": "< 1000"}
{"smiles": "O=C1c2cc(O)ccc2CN1C[C@H]1CC[C@H](C(=O)OC2CCCCC2)CC1", "IC50": "1000 to 5000"}
{"smiles": "CC(=O)N(C)CCOc1cccc(OC[C@H]2CC[C@H](CN3Cc4ccc(O)c(F)c4C3=O)CC2)c1", "IC50": "< 1000"}
{"smiles": "CC(C)(O)[C@H]1CC[C@H](CN2Cc3ccc(O)cc3C2=O)CC1", "IC50": "< 1000"}
{"smiles": "CC(N[C@H](C)C(=O)O)C1CCC(CN2Cc3ccc(O)c(F)c3C2=O)CC1", "note": "(some centres unmarked)", "IC50": "< 1000"}
{"smiles": "CC(N)[C@H]1CC[C@H](CN2Cc3ccc(O)c(F)c3C2=O)CC1", "note": "(some centres unmarked)", "IC50": "< 1000"}
{"smiles": "CC(O)[C@H]1CC[C@H](CN2Cc3cc(F)c(O)c(F)c3C2=O)CC1", "note": "(some centres unmarked)", "IC50": "< 1000"}
{"smiles": "COC(=O)[C@H](C)NC(C)C1CCC(CN2Cc3ccc(O)c(F)c3C2=O)CC1", "note": "(some centres unmarked)", "IC50": "< 1000"}
{"smiles": "CC(C)[C@@H](NC(C)[C@H]1CC[C@H](CN2Cc3ccc(O)c(F)c3C2=O)CC1)C(=O)O", "note": "(single isomer, unassigned)", "IC50": "< 1000"}
{"smiles": "CC(N[C@H](C)C(=O)O)[C@H]1CC[C@H](CN2Cc3ccc(O)c(F)c3C2=O)CC1", "note": "(single isomer, unassigned)", "IC50": "< 1000"}
{"smiles": "CCC(C)OC(=O)[C@H]1CC[C@H](CN2Cc3ccc(O)cc3C2=O)CC1", "note": "(some centres unmarked)", "IC50": "1000 to 5000"}
